Values quoted from earlier work as cited in patent USRE39480E1, “Chromium/biotin treatment of type II diabetes” (Nutrition 21, Inc., priority 1997, dated 2007).

Columns and labels:
[1] = oral biotin intakes of up to 200 mg daily
Type I diabetics = conditions: daily oral dose of 16 mg; insulin injections temporarily discontinued
[2] = system: pre-diabetic Otsuka Long-Evans Tokushima Fatty rats; conditions: high-dose oral or parenteral biotin
[3] = system: rats made diabetic by injection with streptozotocin; conditions: high-dose oral or parenteral biotin
[4] = system: poorly-controlled type II diabetics; conditions: 3 mg biotin three times per day
diabetic KK mice = conditions: high-dose oral or parenteral biotin
[5] = system: individuals with Type II diabetes; conditions: 1,000 μg chromium per day as chromic tripicolinate
Type II diabetes = conditions: doses which provide between 50 and 500 μg of chromium

## O=C(O)CCCC[C@@H]1SC[C@@H]2NC(=O)N[C@@H]21 [biotin]
[1]
  side effects or toxicities: no side effects or toxicities were noted
Type I diabetics
  fasting plasma glucose levels: lowered fasting plasma glucose levels
[2]
  oral glucose tolerance: improve oral glucose tolerance
[3]
  oral glucose tolerance: improve oral glucose tolerance
[4]
  fasting insulin levels: did not decline
  glucose levels: sharp decline
  pancreatic beta cell function: improved pancreatic beta cell function
Diabetic KK mice
  oral glucose tolerance: improve oral glucose tolerance

## chromic tripicolinate
[5]
  decrease in glycosylated hemoglobin: 30%
Type II diabetes
  change in glycosylated hemoglobin: small decrease
Type II diabetes; still within the diabetic range
  glycosylated hemoglobin value obtained after chromic tripicolinate treatment: 10.4%
